Source: US20240336661A1, “PEPTIDES DERIVED FROM RUMINOCOCCUS TORQUES” (University of Copenhagen, priority 2021, published 2024)

Key:
[1] = tested on: human visceral white pre-adipocytes; experiment: Thermogenesis/browning gene expression in human visceral white pre-adipocytes (q-PCR); assay type: cell-based; conditions: 15 nM, 14 days of differentiation
Description: (§1) FIG. 9. Exposure of recombinant RUCILP2 to human visceral white pre-adipocytes or murine inguinal white adipocytes causes up-regulation of the expression of genes involved in thermogenesis/browning. Upper panel: mRNA expression level of adipocyte differentiation marker genes including Ucp1, Pparγ1, Dio2, and Cox2 and brown adipocyte-selective genes including Cpt1b and Ebf2 on human white preadipocytes (HWP). Human white preadipocytes were cultured until 80% confluent and switched into differentiation media (with 0.3 ml/ml fetal calf serum, 8 ug/ml d-biotin, 0.5 ug/ml insulin, 400 ng/ml dexamethasone). The differentiation process to mature adipocytes was completed after 12-14 days. The treatment of RUCILP2 started from the third day of differentiation. Cells were harvested after 14 days of differentiation and the gene expressions were quantified by q-PCR. […] Statistical significance was determined by unpaired two-tailed Student's t test. *, p<0.05 vs 0 nM RUCILP2.
(§2) FIG. 28. […] Cells were harvested after 14 days of differentiation and the indicated genes were quantified by q-PCR. […] Cells were harvested after 6 days of differentiation and thermogenesis gene were quantified by q-PCR. […] Cells were harvested after 4 days of differentiation and expression of myogenesis genes were quantified by q-PCR. […] Statistical significance was determined by unpaired two-tailed Student's t test, *, p<0.05 […]

[2] = tested on: murine inguinal white adipocytes; experiment: Thermogenesis gene expression in murine inguinal adipocytes (q-PCR); assay type: cell-based, mouse; conditions: mouse inguinal preadipocytes, 15 nM every other day, 6 days
Description: as §1, §2

murine C2C12 myoblasts = experiment: Myotube formation and myogenesis gene expression in C2C12 myoblasts; assay type: cell-based, mouse
Description: FIG. 12. […] The C2C12 myotubes were treated with indicated doses of RUCILP2 overnight and myotube images were collected at magnification, ×10.
FIG. 28. […] White preadipocytes from human visceral fat (C-12732, PromoCell) were cultured until 80% confluent and switched into differentiation media (with 0.3 ml/ml of fetal calf serum (FCS), 8 ug/ml of d-biotin, 0.5ug/ml of insulin, 400 ng/ml of dexamethasone) in the presence of 15 nM of 21-AABP2. The differentiation process to mature adipocytes was completed after 14 days. Cells were harvested after 14 days of differentiation and the indicated genes were quantified by q-PCR. Inguinal fat tissues from 6-week-old wild-type C57BL/6J female mice were dissected and washed with PBS, minced and digested for 1 hour at 37° C. in PBS containing 10 mM CaCl2, 2.4 U/ml dispase II (Roche) and 10 mg/ml collagenase D (Roche). After adding warm DMEM/F12 (1:1) with 10% FCS, digested tissue was filtered through a […] cell strainer and centrifuged at 600×g for 10 minutes. Pellet was resuspended by 40 ml DMEM/F12 (1:1) with 10% FCS and filtered through a […] cell strainer followed by centrifugation at 600×g for 10 minutes. Pelleted inguinal stromal vascular cells were grown to confluence and split onto 12-well plates. The cells were induced to differentiate by treatment with […], 0.5 mM isobutyl methyl xanthine for 2 days. After that, cells were maintained in […] for 4 days with medium change every other day. The cells were treated with 15 nM of 21-AABP2 every other day during 6 days of differentiation. Cells were harvested after 6 days of differentiation and thermogenesis gene were quantified by q-PCR. C2C12 myoblasts (CRL-1772, ATCC) were cultured until 80% confluent and switched into differentiation media (with 2% horse serum). The treatment with 21-AABP2 started from the second day of differentiation. Cells were harvested after 4 days of differentiation and expression of myogenesis genes were quantified by q-PCR. Data are presented as mean+/−SEM of one representative experiment done in biological triplicates. Statistical significance was determined by unpaired two-tailed Student's t test, *, p<0.05
FIG. 29. […] Representative images of myoblasts (CRL-1772, ATCC) at 24h of differentiation in the presence of phosphate buffered saline (PBS, blank) or 21-AABP2 (15 nM). Presented images were from one representative experiment done in biological triplicates.
C2C12 cells were seeded on 12-well plates under DMEM/F-12 medium (Dulbecco's Modified Eagle Medium/Nutrient Mixture F-12, Fisher Scientific, #11524436), supplemented with 10% FBS (Fetal Bovine Serum, Fisher Scientific, #11550356) and 1% Penicillin-Streptomycin (Fisher Scientific, #11548876). Cell cultures were maintained in a humidified chamber with 5% CO2 at 37° C., and culture media were changed every 2-3 days.
At approximately 80% confluence, 10% fetal bovine serum was replaced with 2% horse serum to induce C2C12 myoblast cells to differentiate into myotubes. Twenty-four hours later (day 1 of the differentiation), the cells were treated with recombinant RUCILP2 or commercial recombinant irisin (Sigma, #SRP8039-10UG and Phoenix pharmaceuticals, #067-29A) or saline. For integrin inhibitor treatment, cells were treated with 10 μM of CycloRGDyK (Selleckchem, #S7844) for 10 minutes and washed with PBS before treated with recombinant RUCILP2 or commercial recombinant irisin or saline. At day three, the cells were refreshed with the same media as day one. After treatments for six hours on day 3, C2C12 cells were harvested for qRT-PCR analysis.
C2C12 myoblasts were cultured until 80% confluent and switched into differentiation media (with 2% horse serum). The treatment with 21-AABP2 started from the second day of differentiation. Representative images of the formed myotubes at 24h of differentiation in the presence of PBS (blank) or 21-AABP2 (15 nM) were captured. […]

[3] = tested on: rat insulinoma INS-1 cells; experiment: Insulin release from INS-1 cells (ELISA); assay type: cell-based; conditions: 15 nM, 12 hours
Description: FIG. 30. Insulin release from the immortalized rat insulinoma INS-1 cells is increased following 21-AABP2 stimulation. INS-1 cells (832/13, ThermoFisher) were grown in RPM 1640 medium until a confluency of 70% was achieved and switched to RPM 1640 medium supplied with 15 nM of 21-AABP2 and incubated for 12 hours. The insulin concentration in the supernatant of cell culture medium was measured by MSD rat/mouse insulin ELISA kit. Data are presented as mean+/−SEM of one representative experiment done in biological triplicate. Statistical significance was determined by unpaired two-tailed Student's t test, *, p<0.05.
INS-1 cells were grown in RPMI 1640 medium (11875093, ThermoFisher Scientific) until a confluency of 70% was achieved and switched to RPMI 1640 medium supplied with 15 nM of 21-AABP2 and incubated for 12 hours. The insulin concentration in supernatant of cell culture medium was measured by MSD rat/mouse insulin ELISA kit (Merck Millipore).

## 21-AABP2: 21 amino acid trypsin cleaved fragment of RUCILP2, made recombinantly in E. coli (AETTYFVEVTAVDAAGNESVK; Ruminococcus torques)
[1]
  expression of genes involved in thermogenesis/browning: promotes expression
[2]
  expression of key genes regulating thermogenesis: induces expression
Murine C2C12 myoblasts; C2C12, 15 nM, 24h of differentiation
  myotube development: increases myotube development
Murine C2C12 myoblasts; C2C12, harvested after 4 days of differentiation
  expression of genes involved in myogenesis (Mymk, Caveolin-3): stimulates expression
[3]
  insulin release: increased
